Activity calls are given as the source filed them. The calls are words filed in the database; no cut-off is given here.
Experiments:
[1] = system: Influenza A virus; assay: Antiinfluenza activity against influenza A virus H3N2 infected in MDCK cells assessed as inhibition of virus-induced cytopathic effect after 36 hrs; assay type: functional, organism-based
[2] = system: Influenza A virus; assay: Antiinfluenza activity against influenza A virus H1N1 infected in MDCK cells assessed as inhibition of virus-induced cytopathic effect after 36 hrs; assay type: functional, organism-based
[3] = system: Influenza B virus; assay: Antiinfluenza activity against influenza B virus infected in MDCK cells assessed as inhibition of virus-induced cytopathic effect after 36 hrs; assay type: functional, organism-based
[4] = Cytotoxicity against MDCK cells; assay type: cell-based, Canis lupus familiaris; conditions: dog, read-out: TC50 (the source's name)
[5] = system: Influenza A virus; assay: Antiinfluenza activity against influenza A virus H3N2; assay type: functional, organism-based
[6] = system: Influenza A virus; assay: Antiinfluenza activity against influenza A virus H1N1; assay type: functional, organism-based
[7] = system: Influenza B virus; assay: Antiinfluenza activity against influenza B virus; assay type: functional, organism-based
[8] = Selectivity index, ratio of TC50 for MDCK cells to IC50 for influenza A virus H3N2; assay type: toxicity, cell-based; conditions: dog, read-out: Selectivity Index
[9] = Selectivity index, ratio of TC50 for MDCK cells to IC50 for influenza A virus H1N1; assay type: toxicity, cell-based; conditions: dog, read-out: Selectivity Index
[10] = system: Influenza A virus; assay: Antiinfluenza activity against influenza A virus H3N2 infected in MDCK cells assessed as inhibition of virus-induced cytopathic effect at 0.15 to 1.37 ug/ml after 36 hrs; assay type: functional, organism-based
[11] = Selectivity index, ratio of TC50 for MDCK cells to IC50 for influenza B virus; assay type: toxicity, cell-based; conditions: dog, read-out: Selectivity Index

SMILES | IC50 [1] [µM] | IC50 [2] [µM] | IC50 [3] [µM] | CC50 [4] [µM] | IC50 [5] [µM] | IC50 [6] [µM] | IC50 [7] [µM] | selectivity ratio [8] | selectivity ratio [9] | inhibition [10] | selectivity ratio [11]
C=C(C(=O)OCCCN1CCN(C)CC1)[C@@H]1CC[C@H](C)[C@@H]2CC(=O)C(C)=C2C1 | > 95.5 | > 95.5 | > 95.5 | 667 |  |  |  |  |  |  | 
C=C(C(=O)OCCCl)[C@@H]1CC[C@H](C)[C@@H]2CC(=O)C(C)=C2C1 |  |  |  |  | 17.2 | 27.8 | 358 |  |  |  | 
C=C(C(=O)OCCCCCCCCCCN1CCN(C)CC1)[C@@H]1CC[C@H](C)[C@@H]2CC(=O)C(C)=C2C1 | 5.2 | 3.7 | > 25.4 | 177 |  |  |  | 34 | 47.6 | Active | 
NC(=O)c1ncn([C@@H]2O[C@H](CO)[C@@H](O)[C@H]2O)n1 [RIBAVIRIN] | 3.9 | 1.9 | 14.7 | 1280 |  |  |  | 329 | 666 |  | 86.9
C=C(C(=O)OCCCCCCN1CCN(c2ccccc2)CC1)[C@@H]1CC[C@H](C)[C@@H]2CC(=O)C(C)=C2C1 | > 56.5 | > 56.5 | > 56.5 | 394 |  |  |  |  |  |  | 
C=C(C(=O)OCCN1CCN(c2ccccc2)CC1)[C@@H]1CC[C@H](C)[C@@H]2CC(=O)C(C)=C2C1 | 49.4 | 49.4 | 49.4 | 445 |  |  |  | 9 | 9 |  | 9
C=C(C(=O)OCCCCCCCCCCN1CCN(c2ccccc2)CC1)[C@@H]1CC[C@H](C)[C@@H]2CC(=O)C(C)=C2C1 | 94 | 2.4 | > 152 | 456 |  |  |  | 4.9 | 188 | Active | 
C=C(C(=O)OCCCBr)[C@@H]1CC[C@H](C)[C@@H]2CC(=O)C(C)=C2C1 | > 101 | > 101 | > 101 | 436 |  |  |  |  |  |  | 
C=C(C(=O)OCCCCCCCCN1CCN(c2ccccc2)CC1)[C@@H]1CC[C@H](C)[C@@H]2CC(=O)C(C)=C2C1 | > 160 | 92.6 | > 160 | 333 |  |  |  |  | 3.6 |  | 
C=C(C(=O)OCCBr)[C@@H]1CC[C@H](C)[C@@H]2CC(=O)C(C)=C2C1 | > 314 | > 314 | > 314 | 1360 |  |  |  |  |  |  | 
C=C(C(=O)OCCn1cncn1)[C@@H]1CC[C@H](C)[C@@H]2CC(=O)C(C)=C2C1 | 74.9 | 83.8 | > 8 | 224 |  |  |  | 3 | 2.68 |  | 
C=C(C(=O)OCCCCCBr)[C@@H]1CC[C@H](C)[C@@H]2CC(=O)C(C)=C2C1 | 19.3 | 19.3 | > 31.2 | 54 |  |  |  | 2.8 | 2.8 |  | 
C=C(C(=O)OCCCCCn1cncn1)[C@@H]1CC[C@H](C)[C@@H]2CC(=O)C(C)=C2C1 | 17.3 | 7.4 | 17.3 | 672 |  |  |  | 38.9 | 90.8 |  | 38.9
C=C(C(=O)OCCCCCCCCn1cncn1)[C@@H]1CC[C@H](C)[C@@H]2CC(=O)C(C)=C2C1 | 5.2 | 7.2 | 3.2 | 202 |  |  |  | 38.8 | 28 |  | 62.9
C=C(C(=O)OCCCCCCCCCCn1cncn1)[C@@H]1CC[C@H](C)[C@@H]2CC(=O)C(C)=C2C1 | 0.97 | 0.42 | 11.3 | 27.1 |  |  |  | 28.1 | 65 | Active | 2.4
CCOC(=O)C1=C[C@@H](OC(CC)CC)[C@H](NC(C)=O)[C@@H](N)C1 [OSELTAMIVIR PHOSPHATE] | 1.1 | 15.5 | > 500 | 1260 |  |  |  | 1140 | 81.3 |  | 
